Source: US20100029542A1, “PROTEIN STERILISATION BY RADIATION AND ADDITION OF A STABILISING COMPOSITION” (priority 2006, published 2010)

How the values were obtained:
human growth hormone = biological target: T1, human growth hormone (Homo sapiens, UniProt P01241); test: Recovery of structural integrity of human growth hormone in dry formulations following gamma irradiation (HPLC); type: physicochemical; details: structural integrity by HPLC, human growth hormone 2.5 mg mL^−1 prior to drying, 25-40 kGy
T1 construct: purchased National Institute of Biological Standards and Control; further samples on prescription from a GP surgery
T1 sequence (P01241 27-217): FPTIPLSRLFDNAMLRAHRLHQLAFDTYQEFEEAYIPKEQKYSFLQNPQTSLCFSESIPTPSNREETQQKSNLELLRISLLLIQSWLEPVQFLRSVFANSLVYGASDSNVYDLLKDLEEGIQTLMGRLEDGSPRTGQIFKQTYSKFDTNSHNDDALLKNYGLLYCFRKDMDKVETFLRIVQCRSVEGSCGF
Method: (§1) In each example, an aqueous solution of a protein was prepared with selected additives in an Eppendorf tube or in a glass vial. Water was removed from the formulation by drying under a stream of nitrogen at 30° C. and subsequent incubation at atmospheric pressure in the presence of a dessicant. The Eppendorf tubes or the glass vials were sealed and delivered to an industrial sterilisation service for gamma irradiation, with a dose range typical for sterile medical products. The gamma-irradiated samples were reconstituted on their return and analysed for protein activity or structural integrity. The results were compared with those achieved using control (i.e. non-irradiated) samples.
(§2) The dry samples (approx. 20 μg in an Eppendorf tube) were gamma-irradiated by an industry-standard commercial sterilising service provided by Isotron PLC (Swindon, Wilts, UK), using a Cobalt 60 gamma source at ambient temperature. The radiation dose was in the range of 25-40 kGy.
Mobile phase was prepared by mixing 71 parts (by volume) of a solution of TRIS (0.05 M, in water adjusted with hydrochloric acid to a pH of 7.5) and 29 parts (by volume) of n-propylalcohol. The mobile phase was filtered prior to its use. The liquid chromatograph (Agilent 1100 series) was equipped with a 214 nm detector and a 4.6×250 mm column (Phenomenex 00G-4167-E0) packed with butylsilyl silica gel with a granulometry of 5 μm and a porosity of 30 nm, maintained at 45° C. The flow rate was maintained at 0.5 mL min^−1. 15 μL of aqueous samples of human growth hormone (typically 1-2.5 mg mL^−1) were injected. Results were expressed as % of peak area corresponding to the gamma irradiated sample with respect to that measured in non-irradiated sample.

catalase = biological target: T2, catalase (Bos taurus, UniProt P00432); test: Activity recovery of catalase in dry formulations following gamma irradiation; type: physicochemical, bovine; details: Table 10, superoxide scavengers; catalase 100 μg mL^−1 prior to drying; dry; 25-40 kGy
T2 construct: Catalase (from bovine liver, Sigma C9322, 2380 U /mg solid); purchased Sigma C9322; host or cells: bovine liver
T2 sequence (P00432 2-527 limits assumed): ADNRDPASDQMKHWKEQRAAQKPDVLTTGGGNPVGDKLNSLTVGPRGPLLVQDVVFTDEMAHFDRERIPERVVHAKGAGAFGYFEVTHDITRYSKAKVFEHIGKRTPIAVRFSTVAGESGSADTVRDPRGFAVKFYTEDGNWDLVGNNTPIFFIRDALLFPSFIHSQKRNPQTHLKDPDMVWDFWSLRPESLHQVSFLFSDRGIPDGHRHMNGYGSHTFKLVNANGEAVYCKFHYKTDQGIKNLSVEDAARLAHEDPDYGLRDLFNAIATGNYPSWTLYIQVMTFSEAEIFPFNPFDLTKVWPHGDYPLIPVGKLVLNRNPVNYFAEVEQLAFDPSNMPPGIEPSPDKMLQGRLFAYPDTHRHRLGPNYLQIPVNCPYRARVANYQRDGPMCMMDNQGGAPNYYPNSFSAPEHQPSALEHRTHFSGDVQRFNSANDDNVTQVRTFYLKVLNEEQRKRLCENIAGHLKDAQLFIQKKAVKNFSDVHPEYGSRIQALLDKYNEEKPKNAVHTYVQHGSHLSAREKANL
Method: as §1, §2
(§3) The original solutions (i.e. solutions prior to drying) contained 100 μg mL^−1 of catalase and typically the total of 100 mM of protective compounds (i.e. 100 mM in case of a single compound, 50 mM+50 mM in case of two compounds, 33.3 mM+33.3 mM+33.3 mM in the case of three compounds etc.). The solutions were dried and gamma irradiated. Following the gamma irradiation, the samples, both pre- and post-gamma irradiated, were assayed for […] activity. This was performed according to the following procedure:
Water was added to the sample to achieve 100 μg mL^−1 of catalase. 100 μL of the solution was added to a mixture of 18 mL of PBS and 2 mL of hydrogen peroxide (30 mM in water) in a 125 mL polypropylene pot and mixed. The resulting mixture was incubated at room temperature precisely for 30 min. In the meantime, the following reagents were mixed in a plastic cuvette for spectrophotometric measurements: • 2.73 mL of citrate/phosphate buffer (0.1 M, pH 5.0) • 100 μL of tetramethylbenzidine (TMB) (3 mg/mL, dissolved in dimethyl sulphoxide (DMSO)) • 100 μL of lactoperoxidase
Following the 30 min incubation period, 70 μL of the catalase containing mixture was added to the cuvette and absorbance was read in approximately 30 s. The results were expressed as percentage recovery, by reference to the absorbance measured in the fresh samples (i.e. prior to incubation at increased temperature).

glucose oxidase = biological target: T3, glucose oxidase (Aspergillus niger, UniProt P13006); test: Activity recovery of glucose oxidase in dry formulations following gamma irradiation; type: physicochemical; details: glucose oxidase 350 μg mL^−1 prior to drying, dry, 25-40 kGy
T3 construct: purchased Biocatalysts G575P
T3 sequence (P13006 17-605): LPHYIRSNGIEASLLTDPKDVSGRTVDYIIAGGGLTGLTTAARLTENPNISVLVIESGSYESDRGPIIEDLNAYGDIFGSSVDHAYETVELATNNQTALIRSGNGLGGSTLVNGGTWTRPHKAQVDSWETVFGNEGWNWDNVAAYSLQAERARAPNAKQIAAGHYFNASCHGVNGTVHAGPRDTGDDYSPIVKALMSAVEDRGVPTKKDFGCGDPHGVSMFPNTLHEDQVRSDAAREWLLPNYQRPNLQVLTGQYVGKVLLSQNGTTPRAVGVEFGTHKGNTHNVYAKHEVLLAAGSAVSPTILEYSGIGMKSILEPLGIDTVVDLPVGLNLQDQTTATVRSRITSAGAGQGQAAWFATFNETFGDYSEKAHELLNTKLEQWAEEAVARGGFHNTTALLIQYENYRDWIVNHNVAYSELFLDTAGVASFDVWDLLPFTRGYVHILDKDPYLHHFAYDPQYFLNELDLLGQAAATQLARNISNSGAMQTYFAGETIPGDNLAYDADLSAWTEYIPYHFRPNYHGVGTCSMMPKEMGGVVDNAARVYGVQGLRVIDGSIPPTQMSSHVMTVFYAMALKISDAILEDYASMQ
Method: as §1, §2
as §3, with “contained 350” for “contained 100”, “of glucose oxidase” for “of catalase”
Water was added to the sample to achieve 350 μg mL^−1 of glucose oxidase. 50 μL of the solution was added to 50 mL of deionised water. The following solutions were then added: • 10 mL of reagent mix (5 parts of 0.1 M sodium phosphate, pH 6+4 parts 2% w/w starch+1 part of 1 mg/mL lactoperoxidase enzyme); • 5 mL of 100 mM potassium iodide; and • 5 mL of 20% w/w glucose solution.
These were mixed together quickly. Time=0 was counted from the addition of the glucose. After 5 min, 1 ml of 5 M aq. hydrochloric acid was added to stop the reaction. The absorbance was then read at 630 nm using a Unicam UV-visible spectrophotometer (Type: Helios gamma). If the colour intensity was too great to allow an accurate reading, the sample was diluted with a defined volume of deionised water to bring the colour back on scale. The results were expressed as percentage recovery, by reference to the absorbance measured in the pre-gamma irradiation samples.

## CSCC[C@H](N)C(=O)O [Methionine]
Human growth hormone; Table 4, prior-art antioxidants, ambient temperature
  Structural integrity remaining after gamma-irradiation (HPLC): 69.7%
Human growth hormone; Table 7, singlet oxygen scavengers
  Structural integrity remaining after gamma-irradiation (HPLC): 69.7%
Human growth hormone; Table 11, superoxide scavengers
  Structural integrity remaining after gamma-irradiation (HPLC): 69.7%
catalase
  Enzyme activity remaining after gamma-irradiation: 44.3%
Glucose oxidase; Table 3, prior-art antioxidants, ambient temperature, vs non-irradiated
  Enzyme activity remaining after gamma-irradiation: 61.3%
Glucose oxidase; Table 5, singlet oxygen scavengers, ambient temperature
  Enzyme activity remaining after gamma-irradiation: 61.3%
Glucose oxidase; Table 9, superoxide scavengers
  Enzyme activity remaining after gamma-irradiation: 61.3%
